The values that follow come from publication PMC10341573, “Design, Synthesis, and Biological Evaluation of Novel Quinazolin-4(3H)-One-Based Histone Deacetylase 6 (HDAC6) Inhibitors for Anticancer Activity” (International Journal of Molecular Sciences, 2023).

Values joined by “and” are separate entries in the source; they are usually repeats but may differ in a detail not shown here. Equal entries are not always repeated. Where two headings read alike, the source gives them in different places.

For data set [1] the following is noted: cited from earlier work.
In a further data set the test system is B16. Nature of the data set: MTT cell proliferation assay, B16. The class given is cell-based, murine. The settings on record: Mus musculus, read-out: IC50 ± SD B16.
A further data set concerns the target T1, HDAC8 (Homo sapiens, UniProt Q9BY41).
T1 construct: codon-optimized full-length HDAC8; made in house; host or cells: E. coli BL21(DE3), pET14b vector
T1 sequence (Q9BY41 1-377): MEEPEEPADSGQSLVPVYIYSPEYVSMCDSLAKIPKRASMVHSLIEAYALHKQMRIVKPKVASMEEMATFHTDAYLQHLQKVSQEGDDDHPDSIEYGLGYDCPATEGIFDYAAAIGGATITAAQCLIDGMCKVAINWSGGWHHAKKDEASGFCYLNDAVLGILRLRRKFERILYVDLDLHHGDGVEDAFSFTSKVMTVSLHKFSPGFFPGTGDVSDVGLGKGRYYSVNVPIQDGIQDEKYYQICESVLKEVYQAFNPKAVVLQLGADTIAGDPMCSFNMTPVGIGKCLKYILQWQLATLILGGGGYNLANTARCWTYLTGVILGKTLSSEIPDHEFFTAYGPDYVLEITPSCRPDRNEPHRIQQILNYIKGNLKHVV
Description: HDAC enzyme activity assay (fluorogenic, Boc-Lys(trifluoroacetyl)-AMC), HDAC8. Format: biochemical. The settings on record: class I HDAC8; mean ± SD, triplicate.

The target in the next data set is T2, HDAC4 (Homo sapiens, UniProt P56524).
T2 construct: catalytic domain of HDAC4 (T648-T1057, full length: UniProt P56524); made in house; host or cells: E. coli BL21(DE3), pET14b vector
Description: HDAC enzyme activity assay (fluorogenic, Boc-Lys(trifluoroacetyl)-AMC), HDAC4. The class given is biochemical. The note with it: class IIa HDAC4; mean ± SD, triplicate.

The next data set deals with T3, HDAC6 (Homo sapiens, UniProt Q9UBN7).
T3 construct: Full-length recombinant HDAC6 was purchased from BPS Bioscience; purchased BPS Bioscience
T3 sequence (Q9UBN7 1-1215): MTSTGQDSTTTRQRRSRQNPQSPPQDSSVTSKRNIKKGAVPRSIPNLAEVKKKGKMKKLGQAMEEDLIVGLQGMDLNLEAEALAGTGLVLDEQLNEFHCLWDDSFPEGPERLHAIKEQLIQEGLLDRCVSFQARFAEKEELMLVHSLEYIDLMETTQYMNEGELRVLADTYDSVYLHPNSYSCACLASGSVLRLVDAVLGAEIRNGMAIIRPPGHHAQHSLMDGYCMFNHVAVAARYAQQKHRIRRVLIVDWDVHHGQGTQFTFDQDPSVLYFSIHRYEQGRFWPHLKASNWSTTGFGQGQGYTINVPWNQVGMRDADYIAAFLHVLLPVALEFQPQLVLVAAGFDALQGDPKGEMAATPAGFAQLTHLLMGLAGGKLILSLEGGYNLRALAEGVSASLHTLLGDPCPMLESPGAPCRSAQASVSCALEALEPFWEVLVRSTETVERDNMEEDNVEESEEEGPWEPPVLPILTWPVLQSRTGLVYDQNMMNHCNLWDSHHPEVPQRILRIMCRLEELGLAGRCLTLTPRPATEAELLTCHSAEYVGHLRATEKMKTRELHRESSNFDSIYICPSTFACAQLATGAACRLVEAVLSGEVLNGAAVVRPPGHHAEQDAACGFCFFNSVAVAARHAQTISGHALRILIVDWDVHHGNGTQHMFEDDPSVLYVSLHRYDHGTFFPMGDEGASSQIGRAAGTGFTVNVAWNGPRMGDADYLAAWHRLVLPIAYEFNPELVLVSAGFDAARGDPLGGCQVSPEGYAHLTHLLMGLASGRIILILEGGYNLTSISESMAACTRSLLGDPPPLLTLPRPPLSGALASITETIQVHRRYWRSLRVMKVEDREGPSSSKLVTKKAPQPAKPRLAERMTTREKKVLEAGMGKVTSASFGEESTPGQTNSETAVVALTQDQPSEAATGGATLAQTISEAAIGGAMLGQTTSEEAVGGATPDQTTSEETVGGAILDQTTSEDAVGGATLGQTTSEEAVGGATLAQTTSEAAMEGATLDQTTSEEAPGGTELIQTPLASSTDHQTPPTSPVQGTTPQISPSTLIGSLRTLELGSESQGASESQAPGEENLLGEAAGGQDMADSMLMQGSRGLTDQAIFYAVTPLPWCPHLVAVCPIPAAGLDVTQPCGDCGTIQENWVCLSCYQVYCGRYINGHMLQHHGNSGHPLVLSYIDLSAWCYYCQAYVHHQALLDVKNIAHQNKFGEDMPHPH
Description: HDAC enzyme activity assay (fluorogenic, Boc-Lys(acetyl)-AMC), HDAC6. The class given is biochemical. The settings on record: class IIb HDAC6; mean ± SD, triplicate.

In another data set the test system is HEK 293. Nature of the data set: MTT cell proliferation assay, HEK 293. Format: cell-based, human. The note with it: Homo sapiens, read-out: IC50 ± SD HEK 293.
Another data set concerns HCT116. Nature of the data set: MTT cell proliferation assay, HCT116. The class given is cell-based, human. The note with it: Homo sapiens, read-out: IC50 ± SD HCT116.
Another data set relates to MCF7. Description: MTT cell proliferation assay, MCF7. Format: cell-based, human. The settings on record: Homo sapiens, MCF7, 72 h, read-out: IC50 ± SD MCF7.
The test system of another data set is HCC827 cells. Also on record: method as in PMID 34403956. The settings on record: strongest against all cancer cell lines, read-out: IC50, antiproliferative; cited from earlier work.
The next data set has as its system HDAC. Also on record: method as in PMID 29223029. The settings on record: quinazoline-4-(3H)-one cap group; read-out: IC50 HDAC inhibitory activity; cited from earlier work.
The next data set concerns A549, MCF-7, and HT-29. Also on record: method as in doi:10.1016/j.molstruc.2022.132422. The settings on record: most active in all cell lines examined (A549, MCF-7, HT-29); read-out: IC50, antiproliferative; cited from earlier work.
A further data set has as its system HCT-116 cell line. Also on record: method as in PMID 33214036. The settings on record: read-out: IC50, antiproliferative; cited from earlier work.
Setting [2] is: B16, MTT, 72 h, mean ± SD, triplicate.
Where [3] appears, read: HEK293, MTT, 72 h, mean ± SD, triplicate.
[4] abbreviates: HCT-116, MTT, 72 h, mean ± SD, triplicate.
Setting [5] is: MTT, 72 h, mean ± SD, triplicate.

T2 sequence (P56524 648-1057): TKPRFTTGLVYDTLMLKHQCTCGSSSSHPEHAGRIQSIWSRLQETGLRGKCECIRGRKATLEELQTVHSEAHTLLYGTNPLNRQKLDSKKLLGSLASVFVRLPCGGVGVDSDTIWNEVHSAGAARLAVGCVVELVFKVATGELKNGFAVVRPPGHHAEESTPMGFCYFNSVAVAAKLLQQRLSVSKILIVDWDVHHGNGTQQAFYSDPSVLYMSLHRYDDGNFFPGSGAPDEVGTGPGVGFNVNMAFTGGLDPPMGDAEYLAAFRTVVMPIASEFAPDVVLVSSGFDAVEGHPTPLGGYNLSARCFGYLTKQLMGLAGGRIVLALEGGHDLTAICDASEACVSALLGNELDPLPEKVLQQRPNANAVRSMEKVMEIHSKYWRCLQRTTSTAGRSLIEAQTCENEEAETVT

Take `O=C(NO)c1ccc(CN(c2cnccn2)c2cnccn2)cc1` [KA2507]: in data set [1] (phase I/II), the clinical activity result is “prolonged dis-ease stabilization in a subset of patients” and the “toxicity in clinical trial” value was “no significant toxicities”.
`Cc1ccc(-n2c(SCc3ccc(C(=O)NO)cc3)nc3ccccc3c2=O)cc1C` [Compound 5f, 4-(((3-(3,4-dimethylphenyl)-4-oxo-3,4-dihydroquinazolin-2-yl)thio)methyl)-N-hydroxybenzamide]: the melting point was 138 to 144 °C and 142 to 144 °C. In addition, the concentration for half-maximal inhibition (IC50) with B16 (setting [2]) is greater than 50 µM. Half-maximal inhibition against HDAC8 (IC50) required 3 ± 1 µM. The same compound displayed an IC50 against HDAC4 of 1.6 ± 0.9 µM. This compound also displayed an IC50 on HDAC6 of 0.49 ± 0.12 µM. Also, the half-maximal inhibitory concentration (IC50) with HEK 293 (setting [3]) is greater than 50 µM. Also, the IC50 in the data set on HCT116 (setting [4]) is greater than 50 µM. Further, the 50% inhibitory concentration (IC50) in the data set on MCF7 (setting [5]) is greater than 50 µM.
On to `O=C(c1ccccc1)N(C(=O)c1ccccc1)c1ccc(-c2ccc3ncn(Cc4ccccc4)c(=O)c3c2)cn1` [Compound C], for which, in the data set with HCC827 cells, the half-maximal inhibitory concentration (IC50) is 1.12 µM.
Consider `O=C(NO)c1ccc(CSc2nc3cc(Cl)ccc3c(=O)n2-c2ccc(Cl)cc2)cc1` [Compound 5n, 4-(((7-chloro-3-(4-chlorophenyl)-4-oxo-3,4-dihydroquinazolin-2-yl)thio)methyl)-N-hydroxybenzamide], for which the melting point was 230 to 235 °C and 234 to 235 °C. Further, the 50% inhibitory concentration (IC50) in the data set with B16 (setting [2]) amounted to 33.9 ± 5.12 µM. On HDAC8, this compound came in with a half-maximal inhibitory concentration (IC50) of 0.14 ± 0.02 µM. The compound further returned an IC50 against HDAC4 of 6.7 ± 1.1 µM. Half-maximal inhibition against HDAC6 (IC50) required 0.32 ± 0.03 µM. Further, the IC50 in the data set on HEK 293 (setting [3]) was greater than 50 µM. Also, in the data set on HCT116 (setting [4]), the IC50 is greater than 50 µM. Besides, the half-maximal inhibitory concentration (IC50) in the data set on MCF7 (setting [5]) is greater than 50 µM.
As for `Cc1ccccc1-n1c(SCc2ccc(C(=O)NO)cc2)nc2cc(Cl)ccc2c1=O` [Compound 5k, 4-(((7-chloro-4-oxo-3-(o-tolyl)-3,4-dihydroquinazolin-2-yl)thio)methyl)-N-hydroxybenzamide], the melting point is 180 °C and 178 to 180 °C. The IC50 in the data set with B16 (setting [2]) was greater than 50 µM. The compound further returned an IC50 at HDAC8 of 1.3 ± 0.1 µM. For the same compound, on HDAC4, the IC50 is greater than 35 µM. The compound further returned a 50% inhibitory concentration (IC50) at HDAC6 of 0.41 ± 0.15 µM. In addition, the concentration for half-maximal inhibition (IC50) in the data set with HEK 293 (setting [3]) is greater than 50 µM. For the same compound, in the data set on HCT116 (setting [4]), the half-inhibitory concentration (IC50) is greater than 50 µM. For the same compound, the IC50 in the data set with MCF7 (setting [5]) was greater than 50 µM.
As to `COc1cc2ncn(Cc3ccc(C(=O)NO)cc3)c(=O)c2cc1OC` [G], the half-inhibitory concentration (IC50) with HDAC was 0.37 µM.
Turning to `CCc1ccc(-n2c(SCc3ccc(C(=O)NO)cc3)nc3ccccc3c2=O)cc1` [Compound 5d, 4-(((3-(4-ethylphenyl)-4-oxo-3,4-dihydroquinazolin-2-yl)thio)methyl)-N-hydroxybenzamide], the melting point is 150 to 157 °C and 155 to 157 °C. The IC50 with B16 (setting [2]) was 29.8 ± 8.72 µM. Besides, the IC50 against HDAC8 was found to be 2.3 ± 0.8 µM. The compound further displayed a 50% inhibitory concentration (IC50) against HDAC4 of 0.64 ± 0.37 µM. Besides, the 50% inhibitory concentration (IC50) at HDAC6 turned out to be 0.28 ± 0.06 µM. Moreover, in the data set on HEK 293 (setting [3]), the IC50 was greater than 50 µM. The IC50 in the data set on HCT116 (setting [4]) came out at 34.5 ± 10.4 µM. Moreover, the IC50 with MCF7 (setting [5]) came out at 21.7 ± 2.47 µM.
Consider `C=CCn1c(SCC(=O)Nc2cccc(C(=O)/C=C/c3ccc(OC)cc3)c2)nc2ccccc2c1=O` [A], for which the IC50 in the data set on A549, MCF-7, and HT-29 is 1.16 µM.
`Cc1ccc(-n2c(SCc3ccc(C(=O)NO)cc3)nc3cc(Cl)ccc3c2=O)cc1` [Compound 5l, 4-(((7-chloro-4-oxo-3-(p-tolyl)-3,4-dihydroquinazolin-2-yl)thio)methyl)-N-hydroxybenzamide]: the melting point is 170 to 175 °C and 173 to 175 °C. Further, in the data set on B16 (setting [2]), the IC50 is greater than 50 µM. Moreover, at HDAC8, the IC50 was found to be 17 µM. Moreover, the IC50 against HDAC4 worked out at 19 µM. In addition, the IC50 at HDAC6 came to 3.9 ± 0.4 µM. For the same compound, in the data set on HEK 293 (setting [3]), the IC50 was greater than 50 µM. In addition, the IC50 in the data set on HCT116 (setting [4]) is greater than 50 µM. Besides, the IC50 in the data set on MCF7 (setting [5]) was greater than 50 µM.
As for `O=C(CCCCCCNC(=O)c1cnc(N(c2ccccc2)c2ccccc2)nc1)NO` [Ricolinostat, reference compound], the IC50 in the data set on B16 (B16, 72 h) is 89.2 ± 12.5 µM; with HEK 293 (HEK293, 72 h), 66.8 ± 10.6 µM; with HCT116 (HCT-116, 72 h) it was 40.5 ± 7.69 µM; with MCF7, greater than 50 µM. Also, the “outcome of combination therapy with bortezomib and dexamethasone” value in data set [1] (multiple myeloma) was “safe, well-tolerated, and active against multiple myeloma”. Moreover, the “safety of combination with paclitaxel” value in data set [1] (patients with metastatic breast cancer) is given as “could be safely combined with paclitaxel”. Further, the single-agent therapy outcome in data set [1] (single agent) is “neither significant toxicities nor clinical responses”.
In the case of `C/C(=N\NC(=O)c1cc([N+](=O)[O-])ccc1Cl)c1ccc(NC(=O)CSc2nc3ccccc3c(=O)n2-c2ccc(C)cc2)cc1` [B], the IC50 with HCT-116 cell line was 11.7 µM.
